Series [1] is described as follows: Experiment 2: long-time stirring in ethyl acetate at room temperature, resulting crystalline form. Type of series: physicochemical. How it is done:
Topotecan hydrochloride (4.0 g Form A or Form D) is stirred in ethyl acetate (40 mL) for a long time (40, 80, or 200 hours) at room temperature. The solids are filtered and washed with cool ethyl acetate. Dry under vacuum at room temperature.

The nature of series [2]: Stability of crystalline forms held at room temperature, purity by HPLC. The class given is physicochemical. As to conditions: for Purity / Stability at room temperature: HPLC; for Stability at room temperature: over twenty days at room temperature. An excerpt: The stabilities of some of the crystalline forms have been tested under various conditions. HPLC was used to determine the degree of degradation of topotecan hydrochloride over time.
The samples with different forms were held at room temperature for a specific period. We tested the purities of these samples by HPLC and observed the changes of their purities.
The changes to the purities of Forms D to I are summarized as follows: […]

Where [3] appears, read: room temperature, duration 0 hour, hydrochloride.
Where [4] appears, read: room temperature, duration 3 days, hydrochloride.
[5] abbreviates: room temperature, duration 7 days, hydrochloride.
Where [6] appears, read: room temperature, duration 20 days, hydrochloride.
[7] abbreviates: room temperature, duration 36 days, hydrochloride.
[8] abbreviates: room temperature, duration 32 days, hydrochloride.

From patent US8013158B2, “Crystalline forms of topotecan hydrochloride and processes for making the same” (Scinopharm Taiwan Ltd., priority 2007, dated 2011) come the findings set out here.

Entries after “also recorded” stand apart in the source; their conditions may differ.

On to `CC[C@@]1(O)C(=O)OCc2c1cc1n(c2=O)Cc2cc3c(CN(C)C)c(O)ccc3nc2-1.Cl` [Form A, topotecan monohydrochloride pentahydrate, reference compound], for which the “Crystalline form after stirring” value in series [1] (stirred in ethyl acetate 40 h at room temperature, listed as From A) is “From A → A”; in series [1] (stirred in ethyl acetate 80 h at room temperature), “transform to Form E; also recorded: Form A → E”; in series [1] (stirred in ethyl acetate 200 h at room temperature) it was “Form A → E”.
`CC[C@@]1(O)C(=O)OCc2c1cc1n(c2=O)Cc2cc3c(CN(C)C)c(O)ccc3nc2-1.Cl` [Form D, topotecan hydrochloride]: the “Stability on long time stirring compared with Form A” value in series [1] (long time stirring in ethyl acetate) is listed as “more stable than Form A”. Moreover, the “Crystalline form after stirring” value was “Form D → D” in series [1] (stirred in ethyl acetate 40 h at room temperature, hydrochloride); “Form D → D” in series [1] (stirred in ethyl acetate 80 h at room temperature, hydrochloride); “stable; also recorded: Form D → D” in series [1] (stirred in ethyl acetate 200 h at room temperature, hydrochloride). The “Stability at room temperature compared with other Forms” value in series [2] (room temperature) is “better than other Forms”. In addition, the Purity in series [2] (setting [3]) was found to be 99.32%; in series [2] (setting [4]) it was 99.21%; in series [2] (setting [5]), 99.17%; in series [2] (setting [6]) it was 99.08%; in series [2] (setting [7]), 99.43%.
`CC[C@@]1(O)C(=O)OCc2c1cc1n(c2=O)Cc2cc3c(CN(C)C)c(O)ccc3nc2-1.Cl` [Form E, topotecan hydrochloride]: the Purity in series [2] (setting [3]) turned out to be 98.99%; in series [2] (setting [4]) it was 99.27%; in series [2] (setting [5]), 99.31%; in series [2] (setting [6]), 99.29%; in series [2] (setting [7]), 99.30%.
With `CC[C@@]1(O)C(=O)OCc2c1cc1n(c2=O)Cc2cc3c(CN(C)C)c(O)ccc3nc2-1.Cl` [Form F, topotecan hydrochloride], the Purity in series [2] (setting [3]) is 99.94%; in series [2] (setting [4]), 99.92%; in series [2] (room temperature, duration 16 days) it was 99.91%; in series [2] (setting [8]) it was 99.91%.
Turning to `CC[C@@]1(O)C(=O)OCc2c1cc1n(c2=O)Cc2cc3c(CN(C)C)c(O)ccc3nc2-1.Cl` [Form G, topotecan hydrochloride], the Purity amounted to 99.11% in series [2] (setting [3]); 99.06% in series [2] (setting [4]); 99.00% in series [2] (setting [5]); 98.88% in series [2] (setting [6]); 99.06% in series [2] (setting [8]).
`CC[C@@]1(O)C(=O)OCc2c1cc1n(c2=O)Cc2cc3c(CN(C)C)c(O)ccc3nc2-1.Cl` [Form H, topotecan hydrochloride]: in series [2], the “Stability at room temperature” value was “substantially stable”. Moreover, the Purity stood at 99.92% in series [2] (setting [3]), 99.90% in series [2] (setting [4]), 99.92% in series [2] (setting [5]) and 99.89% in series [2] (setting [6]).
`CC[C@@]1(O)C(=O)OCc2c1cc1n(c2=O)Cc2cc3c(CN(C)C)c(O)ccc3nc2-1.Cl` [Form I, topotecan hydrochloride]: the “Stability at room temperature” value in series [2] was “substantially stable”. Also, the Purity came out at 99.70% in series [2] (setting [3]), 99.65% in series [2] (setting [4]), 99.56% in series [2] (setting [5]) and 99.56% in series [2] (setting [6]).
